Data from EP4818177A1, “TRICYCLIC DERIVATIVE INHIBITOR, AND PREPARATION METHOD AND USE THEREFOR” (Shanghai Hansoh Biomedical Co., Ltd., priority 2023, dated 2025).

Experiments:
[1] = molecular target: T1, PRMT5/MEP50-MTA protein complex (Homo sapiens, UniProt O14744); experiment: Thermal shift assay: change in melting temperature of the PRMT5/MEP50-MTA protein complex; assay type: binding; conditions: compound 8 µM, PRMT5/MEP50 2 µM, MTA 2 µM; Tm minus DMSO vehicle control
T1 construct: purchased Viva Biotech
T1 sequence (O14744 whole entry): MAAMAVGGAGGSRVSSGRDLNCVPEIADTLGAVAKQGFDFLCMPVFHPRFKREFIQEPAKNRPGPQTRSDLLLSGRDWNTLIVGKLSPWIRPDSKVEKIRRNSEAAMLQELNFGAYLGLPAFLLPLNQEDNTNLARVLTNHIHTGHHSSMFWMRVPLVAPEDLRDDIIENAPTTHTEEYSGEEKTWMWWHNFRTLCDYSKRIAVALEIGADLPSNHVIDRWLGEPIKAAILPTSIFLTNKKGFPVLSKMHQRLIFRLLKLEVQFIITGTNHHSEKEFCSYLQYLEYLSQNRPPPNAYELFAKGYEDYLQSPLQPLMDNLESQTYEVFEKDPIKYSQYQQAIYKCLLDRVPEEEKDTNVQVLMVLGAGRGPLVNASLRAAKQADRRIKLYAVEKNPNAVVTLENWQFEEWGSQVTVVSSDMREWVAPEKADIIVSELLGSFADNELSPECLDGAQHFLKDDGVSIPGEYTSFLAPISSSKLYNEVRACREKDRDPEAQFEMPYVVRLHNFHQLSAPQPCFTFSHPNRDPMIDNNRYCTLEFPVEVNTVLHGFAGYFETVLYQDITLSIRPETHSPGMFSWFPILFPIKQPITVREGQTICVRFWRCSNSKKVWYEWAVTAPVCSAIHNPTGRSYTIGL
T1 sequence (Q9BQA1 whole entry partner): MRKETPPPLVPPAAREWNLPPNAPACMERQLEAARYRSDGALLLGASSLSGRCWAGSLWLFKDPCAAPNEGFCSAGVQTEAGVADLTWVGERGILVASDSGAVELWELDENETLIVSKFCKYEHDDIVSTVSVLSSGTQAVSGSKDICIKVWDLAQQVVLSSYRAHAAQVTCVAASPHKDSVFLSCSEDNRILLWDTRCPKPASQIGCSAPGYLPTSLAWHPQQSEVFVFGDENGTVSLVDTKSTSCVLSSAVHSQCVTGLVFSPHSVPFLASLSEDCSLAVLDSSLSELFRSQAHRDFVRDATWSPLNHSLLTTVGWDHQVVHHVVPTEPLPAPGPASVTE
Text: Test Example 1: Determination of the ability of the compounds of the present invention to improve the thermal stability (melting temperature) of the PRMT5/MEP50-MTA protein complex.
1. Experimental objective: The objective of this test example is to determine the ability of the compound to improve the thermal stability of the PRMT5/MEP50-MTA protein complex, resulting in an increase in the protein melting temperature. 2. Experimental instruments: Quantitative PCR instrument (Quantstudio6 Flex) was purchased from Life Technologies; pipettes were purchased from Eppendorf or Rainin. 3. Experimental reagents and consumables: PRMT5/MEP50 protein was prepared by Viva Biotech; HEPES was purchased from Thermo Fisher Scientific (Cat. No. 15630080); DTT was purchased from Sigma (Cat. No. 43816-10ml); sodium chloride was purchased from Invitrogen (Cat. No. AM9760G); Protein Thermal Shift™ Dye Kit was purchased from Thermo Fisher Scientific (Cat. No. 4461146); methylthioadenosine (MTA) was purchased from Sigma (Cat. No. D5011). 4. Experimental methods: In this experiment, the thermal shift method was used to measure the change in the melting temperature (Tm) of the PRMT5/MEP50-MTA protein complex before and after compound binding, thereby characterising the ability of the compound to improve the thermal stability of the PRMT5/MEP50-MTA protein complex. A solution containing 50 mM HEPES, 10 mM DTT, 2 µM MTA, SYPRO Orange and 250 mM NaCl was prepared as the experimental buffer. Human PRMT5/MEP50 protein was added to a final concentration of 2 µM, and the mixture was incubated at room temperature for 30 minutes. The above reaction mixture was aliquoted into 8-strip PCR tubes at 19.5 µL per tube. Then 0.5 µL of test compound or DMSO was added to each tube, providing a total reaction volume of 20 µL and a final compound concentration of 8 µM. 2.5% DMSO was set as the vehicle control. After incubation at room temperature for 10 minutes, the PCR tubes were placed in a PCR instrument, and the melt curve function was selected to measure the melting temperature of the PRMT5/MEP50-MTA protein complex in different treatment groups (heated from 25°C to 95°C, 0.03°C/s). 5. Experimental data processing method: The experimental data files from the PCR instrument were imported into the thermal shift software to obtain the melting temperature (Tm) for each treatment group.

[2] = Pharmacokinetics in rats (plasma) after oral administration; conditions: male, SD, rat, 5 mg/kg
Protocol: Test Example 4: Determination of the pharmacokinetics of the compounds of the present invention in rats (plasma) after oral administration.
Study objective: SD rats were used as test animals to study the pharmacokinetic behaviour of the following example compounds in rats (plasma) after oral administration at a dose of 5 mg/kg. […] Test scheme 2.1 Test drugs: Vehicle formula: 0.5% CMC-Na (1% Tween 80); the examples of the present invention, prepared in house. 2.2 Test animals: 3 SD rats per group, male, purchased from Shanghai Bikai Keyi Biotechnology Co., Ltd., with animal license number (SCXK (Shanghai) 2018-0006, No.20180006037467). 2.3 Administration: 3 SD rats per group, male, were fasted overnight and then respectively administered PO at a dose of 5 mg/kg and a volume of 10 mL/kg. 2.4 Sample collection: 0.2 mL of blood was collected from the jugular vein of rats before administration and at 0, 0.25, 0.5, 1, 2, 4, 6, 8 and 24 h after administration, and placed in EDTA-K2test tubes, and the test tubes were centrifuged at 6,000 rpm at 4°C for 6 min to separate the plasma, which was stored at -80°C. The animals were fed 4 h after administration. 2.5 Sample treatment • 1) 160 uL of acetonitrile was added to 40 uL of plasma sample for precipitation, and after mixing, the mixture was centrifuged at 3,500 × g for 5-20 minutes. • 2) 100 uL of the treated supernatant solution was taken for LC/MS/MS analysis to determine the concentration of the test compounds. 2.6 Liquid phase analysis • Liquid phase conditions: Shimadzu LC-20AD pump; • Mass spectrometry conditions: AB Sciex API 4000 mass spectrometer; • Chromatographic column: phenomenex Gemiu 5 um C18 50 × 4.6 mm; • Mobile phase: solution A: 0.1% formic acid in water, solution B: methanol; • flow rate: 1.0 mL/min; Elution time: 0-4.0 min, with eluents as follows:
Experimental results and analysis: The main pharmacokinetic parameters were calculated using WinNonlin 8.2.

Row | Structure (SMILES) | ΔTm at 8 µM [1] | other results
1 | CNN(C(=O)c1cc2c3c(c(N)nc2cc1F)COC3)C1COCc2nc(C(F)(F)F)ccc21 (racemic) [Example 306] | 12.7 °C | –
2 | CNN(C(=O)c1cc2c(cn1)nc(N)c1cncn12)C1COc2cc(S(F)(F)(F)(F)F)ccc21 (racemic) [Example 385, 4-Amino-N'-methyl-N-(6-(pentafluoro-6-sulphanyl)-2,3-dihydrobenzofuran-3-yl)imidazo [1,5-a] pyrido [3,4-e] pyrazine-8-carbohydrazide] | 11.6 °C | –
3 | CNN(C(=O)c1ccc2nc(N)c3cnn(C)c3c2c1)C1COc2cc(S(F)(F)(F)(F)F)ccc21 (racemic) [Example 450, 4-Amino-N',1-dimethyl-N-(6-(pentafluoro-6-sulphanyl)-2,3-dihydrobenzofuran-3-yl)-1H-pyrazolo[4,3-c]quinoline-8-carbohydrazide] | 12 °C | –
4 | [2H]C([2H])([2H])NN(C(=O)c1cc2c3c(c(N)nc2cc1C)COC3)C1COCc2c1ccn1c(C(F)(F)F)cnc21 (single isomer, unassigned) [Example 357-P1] | – | ΔTm (°C) [1]: 12.45 °C
5 | CNN(C(=O)c1cc2c(cn1)nc(N)c1cncn12)C1COc2cc(S(F)(F)(F)(F)F)ccc21 (single isomer, unassigned) [Example 385-P1] | 14 °C | –
6 | CNN(C(=O)c1cc2c(cn1)nc(N)c1cncn12)C1COc2cc(S(F)(F)(F)(F)F)ccc21 (single isomer, unassigned) [Example 385-P2] | – | ΔTm (°C) [1]: 12.31 °C
7 | CN(C(=O)c1ccc2nc(N)c3cnn(C)c3c2c1)[C@@H]1COCc2c1ccn1cc(Br)nc21 [Example 37-P1, (S)-4-amino-N-(2-bromo-7,10-dihydro-8H-imidazo[1,2-a]pyrano[3,4-c]pyridin-7-yl)-N,1-dimethyl-1H-pyrazolo[4,3-c]quinoline-8-carboxamide] | 10.5 °C | –
8 | Cc1cc2nc(N)c3cncn3c2cc1C(=O)N(C)C1COCc2c1ccn1cc(C(F)(F)F)nc21 (centres unmarked) [Example 39, 4-Amino-N,7-dimethyl-N-(2-(trifluoromethyl)-7,10-dihydro-8H-imidazo[1,2-a]pyrano[3,4-c]pyridin-7-yl)imidazo[1,5-a]quinoxaline-8-carboxamide] | 11.7 °C | –
9 | Cc1cc2nc(N)c3cncn3c2cc1C(=O)N(C)C1COCc2c1ccc1nc(C(F)(F)F)cn21 (centres unmarked) [Example 48, 4-Amino-N,7-dimethyl-N-(8-(trifluoromethyl)-3,4-dihydro-1H-imidazo[1,2-a]pyrano[4,3-e]pyridin-4-yl)imidazo[1,5-a]quinoxaline-8-carboxamide] | 11.7 °C | –
10 | CN(C(=O)c1ccc2nc(N)c3cnn(C)c3c2c1)C1COCc2c1ccc1cc(C(F)(F)F)cnc21 (centres unmarked) [Example 68, 4-Amino-N,1-dimethyl-N-(3-(trifluoromethyl)-7,10-dihydro-8H-pyrano[4,3-h]quinolin-7-yl)-1H-pyrazolo[4,3-c]quinoline-8-carboxamide] | 10.4 °C | –
11 | CN(C(=O)c1ccc2nc(N)c3cnn(C)c3c2c1)C1COCc2c1ccc1nc(C(F)(F)F)cn21 (centres unmarked) [Example 81, 4-Amino-N,1-dimethyl-N-(8-(trifluoromethyl)-3,4-dihydro-1H-imidazo[1,2-a]pyrano[4,3-e]pyridin-4-yl)-1H-pyrazolo[4,3-c]quinoline-8-carboxamide] | 10.4 °C | –
12 | Cc1cc2nc(N)c3cncn3c2cc1C(=O)N(C1CC(=C(F)F)C1)C1COCc2c1ccn1c(C(F)(F)F)cnc21 (centres unmarked) [Example 144, 4-Amino-N-[3-(difluoromethylene)cyclobutyl]-7-methyl-N-[5-(trifluoromethyl)-12-oxa-3,6-diazatricyclo[7.4.0.02,6]trideca-1(9),2,4,7-tetraen-10-yl]imidazo[1,5-a]quinoxaline-8-carboxamide] | 10.2 °C | –
13 | Cc1cc2nc(N)c3cncn3c2cc1C(=O)N(C)C1COCc2c1ccn1c(N=S(C)(C)=O)cnc21 (centres unmarked) [Example 146, 4-Amino-N-(3-((dimethyl(carbonyl)-16-sulphanylidene)amino)-7,10-dihydro-8H-imidazo[1,2-a]pyrano[3,4-c]pyridin-7-yl)-N,7-dimethylimidazo[1,5-a]quinoxaline-8-carboxamide] | 10.2 °C | –
14 | CN(C(=O)c1cc2c(cc1F)nc(N)c1cncn12)C1COCc2c1ccn1c(C(F)(F)F)c(C(=O)N3CC(=C(F)F)C3)nc21 (centres unmarked) [Example 234, 4-Amino-N-(2-(3-(difluoromethylene)azetidine-1-carbonyl)-3-(trifluoromethyl)-7,10-dihydro-8H-imidazo[1,2-a]pyrano[3,4-c]pyridin-7-yl)-7-fluoro-N-methylimidazo[1,5-a]quinoxaline-8-carboxamide] | 10.9 °C | –
15 | CN(C(=O)c1cc2c(cc1F)nc(N)c1cncn12)C1COCc2c1ccn1c(C(F)=C3CCCCC3)cnc21 (centres unmarked) [Example 240, 4-Amino-N-(3-(cyclohexylidenefluoromethyl)-7,10-dihydro-8H-imidazo[1,2-a]pyrano[3,4-c]pyridin-7-yl)-7-fluoro-N-methylimidazo[1,5-a]quinoxaline-8-carboxamide] | 10.8 °C | –
16 | CNN(C(=O)c1cc2c(cc1C)nc(N)c1cncn12)C1COCc2nc(C(F)(F)F)ccc21 (centres unmarked) [Example 278, 4-Amino-N',7-dimethyl-N-(2-(trifluoromethyl)-5,8-dihydro-6H-pyrano[3,4-b]pyridin-5-yl)imidazo[1,5-a]quinoxaline-8-carbohydrazide] | 12.7 °C | –
17 | CNN(C(=O)c1cc2c(cc1C)nc(N)c1cncn12)[C@@H]1COCc2nc(C(F)(F)F)ccc21 [Example 278-P1, (S)-4-amino-N',7-dimethyl-N-(2-(trifluoromethyl)-5,8-dihydro-6H-pyrano[3,4-b]pyridin-5-yl)imidazo[1,5-a]quinoxaline-8-carbohydrazide] | 12.6 °C | –
18 | Nc1nc2cc(F)c(C(=O)N(N)C3COCc4nc(C(F)(F)F)ccc43)cc2n2cncc12 (centres unmarked) [Example 280, 4-Amino-7-fluoro-N-(2-(trifluoromethyl)-5,8-dihydro-6H-pyrano[3,4-b]pyridin-5-yl)imidazo[1,5-a]quinoxaline-8-carbohydrazide] | 10.9 °C | –
19 | CNN(C(=O)c1cc2c(cc1C)nc(N)c1cncn12)C1COCc2c1ccn1c(C(F)(F)F)cnc21 (centres unmarked) [Example 281, 4-Amino-N',7-dimethyl-N-(3-(trifluoromethyl)-7,10-dihydro-8H-imidazo[1,2-a]pyrano[3,4-c]pyridin-7-yl)imidazo[1,5-a]quinoxaline-8-carbohydrazide] | 12.7 °C | –
20 | CNN(C(=O)c1cc2c3c(c(N)nc2cn1)COC3)C1COCc2nc(C(F)(F)F)ccc21 (centres unmarked) [Example 286, 4-Amino-N'-methyl-N-(2-trifluoromethyl-5,8-dihydro-6H-pyrano[3,4-b]pyridin-5-yl)-1,3-dihydrofuro[3,4-c] [1,7]naphthyridine-8-carbohydrazide] | 10.5 °C | –
21 | CNN(C(=O)c1cc2c3c(c(N)nc2cn1)COC3)C1COCc2cc(C(F)(F)F)ccc21 (centres unmarked) [Example 298, 4-Amino-N'-methyl-N-(7-(trifluoromethyl)isochroman-4-yl)-1,3-dihydrofuro[3,4-c][1,7]diazanaphthalene-8-carbohydrazide] | 11.4 °C | –
22 | Nc1nc2cnc(C(=O)N(N)C3COCc4c3ccn3c(C(F)(F)F)cnc43)cc2c2c1COC2 (centres unmarked) [Example 424, 4-Amino-N-(3-(trifluoromethyl)-7,10-dihydro-8H-imidazo[1,2-a]pyrano[3,4-c]pyridin-7-yl)-1,3-dihydrofuro[3,4-c][1,7]naphthyridine-8-carbohydrazide] | – | AUC(0-inf) [2]: 2380 ng·h/mL; Cmax [2]: 226 ng/mL; MRT inf [2]: 8.9 h; Tmax [2]: 2.7 h; half-life [2]: 6.1 h
